Test results reported in patent US20220411473A1, “LYSIN-ANTIMICROBIAL PEPTIDE (AMP) POLYPEPTIDE CONSTRUCTS, LYSINS, ISOLATED POLYNUCLEOTIDES ENCODING SAME AND USES THEREOF” (priority 2019, published 2022).
Like-named read-outs stand apart in the source and are kept apart here.

Tests used:
[1] = system: carbapenem-resistant P. aeruginosa strains; format: cell-based, Pseudomonas aeruginosa; details: for susceptibility category, antibiotic alone: Table 22, WC-452; on susceptibility category, antibiotic alone: key: (R) = resistant; (S) = sensitive; on susceptibility category, imipenem alone: key: (R) = resistant; (S) = sensitive; on susceptibility category, imipenem in combination with GN121: key: (R) = resistant; (S) = sensitive; on susceptibility category, imipenem in combination with GN123: key: (R) = resistant; (S) = sensitive; on susceptibility category, meropenem alone: key: (R) = resistant; (S) = sensitive; on susceptibility category, meropenem in combination with GN123: key: (R) = resistant; (S) = sensitive
Protocol: Such resensitization may be determined by combining the present lysins or lysin-AMP polypeptide constructs with an antibiotic in a checkerboard assay as described herein. Antibiotic-resistant bacteria, such as carbapenem-resistant P. aeruginosa, are added to the lysin or lysin-AMP polypeptide construct combination. […] See Clinical and Laboratory Standards Institute (CLSI), CLSI. […] M100 Performance Standards for Antimicrobial Susceptibility Testing; 29th Edition. Clinical and Laboratory Standards Institute, Wayne, Pa., which is herein incorporated by reference in its entirety.
Up to seven carbapenem-resistant isolates were assessed. […] See Clinical and Laboratory Standards Institute (CLSI), CLSI. […] M100 Performance Standards for Antimicrobial Susceptibility Testing; 29th Edition. Clinical and Laboratory Standards Institute, Wayne, Pa.

Staphylococcus aureus = assay: Daptomycin MIC in […] (positive control); format: cell-based; details: S. aureus
Protocol: As a positive control, the impact of […] ® on daptomycin (DAP) activity against Staphylococcus aureus was also tested.

[2] = Table 18, isolates PA19-PA24 and WC-452
[3] = Table 19, isolates PA19-PA24 and WC-452

C[C@@H](O)[C@H]1C(=O)N2C(C(=O)O)=C(SCCN=CN)C[C@H]12 [Imipenem, imipenem]
0.5 µg/mL: MIC Combination ([1]; isolate PA19, imipenem + GN123) | MIC Combination ([1]; isolate PA20, imipenem + GN121) | MIC Combination ([1]; isolate PA21, imipenem + GN123)
(S): susceptibility category, imipenem in combination with GN123 [1, 2] | susceptibility category, imipenem in combination with GN121 ([1]; Table 20, isolates PA19-PA24)
2 µg/mL: MIC Combination ([1]; isolate PA22, imipenem + GN121) | MIC Combination ([1]; isolate PA22, imipenem + GN123) | MIC Combination ([1]; isolate PA24, imipenem + GN123)
R: susceptibility category, imipenem alone [1, 2] | susceptibility category, imipenem alone ([1]; Table 20, isolates PA19-PA24) | susceptibility category, antibiotic alone [1]
0.25 µg/mL: MIC Combination ([1]; isolate PA23, imipenem + GN123)
1 µg/mL: MIC Combination ([1]; isolate PA19, imipenem + GN121) | MIC Combination ([1]; isolate PA20, imipenem + GN123) | MIC Combination ([1]; isolate PA21, imipenem + GN121) | MIC Combination ([1]; isolate PA24, imipenem + GN121) | MIC Combination ([1]; isolate WC-452, imipenem + GN123)

C[C@@H](O)[C@H]1C(=O)N2C(C(=O)O)=C(S[C@@H]3CN[C@H](C(=O)N(C)C)C3)[C@H](C)[C@H]12 [Meropenem, meropenem]
R: susceptibility category, meropenem alone [1, 3] | susceptibility category, meropenem alone ([1]; Table 21, isolates PA19-PA24 and WC-452) | susceptibility category, antibiotic alone [1]
1 µg/mL: MIC Combination ([1]; isolate PA19, meropenem + GN121) | MIC Combination ([1]; isolate PA20, meropenem + GN121) | MIC Combination ([1]; isolate PA21, meropenem + GN123) | MIC Combination ([1]; isolate PA22, meropenem + GN121) | MIC Combination ([1]; isolate PA22, meropenem + GN123) | MIC Combination ([1]; isolate PA24, meropenem + GN121) | MIC Combination ([1]; isolate WC-452, meropenem + GN121) | MIC Combination ([1]; isolate WC-452, meropenem + GN123)
2 µg/mL: MIC Combination ([1]; isolate PA21, meropenem + GN121) | MIC Combination ([1]; isolate PA23, meropenem + GN121) | MIC Combination ([1]; isolate PA24, meropenem + GN123)
(S): susceptibility category, meropenem in combination with GN123 [1, 3]
0.5 µg/mL: MIC Combination ([1]; isolate PA19, meropenem + GN123) | MIC Combination ([1]; isolate PA20, meropenem + GN123) | MIC Combination ([1]; isolate PA23, meropenem + GN123)

daptomycin
128 fold: fold increase in MIC (Staphylococcus aureus; 1.56% SURVANTA) | fold increase in MIC (Staphylococcus aureus; 3.15% SURVANTA)
32 fold: fold increase in MIC (Staphylococcus aureus; 0.09% SURVANTA) | fold increase in MIC (Staphylococcus aureus; 0.19% SURVANTA)
